Measured values taken from PubChem BioAssay (NCI).
Values joined by “and” are separate entries in the source; they are usually repeats but may differ in a detail not shown here. Identical values can stand only once.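 Cultured in 96-well plates, cells were exposed to test compound for 48 hours across five concentrations. GI50: concentration for 50% inhibition of growth. TGI denotes the concentration required for complete inhibition of growth.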

Columns and labels:
Test in all cases: NCI-60 cell line screen, 48 h
K-562 leukemia = system: K-562 leukemia
HL-60(TB) leukemia = system: HL-60(TB) leukemia
786-0 renal = system: 786-0 renal
HOP-92 NSCLC = system: HOP-92 NSCLC
NCI-H23 lung = system: NCI-H23 lung
SK-MEL-2 melanoma = system: SK-MEL-2 melanoma
M14 melanoma = system: M14 melanoma
COLO 205 colon = system: COLO 205 colon
T-47D breast = system: T-47D breast
NCI/ADR-RES ovarian = system: NCI/ADR-RES ovarian

Compound: CCc1cccc(C)c1NC(=O)C(=O)Cc1nc2ccccc2s1
- TGI (K-562 leukemia): > 100 µM
- TGI (HL-60(TB) leukemia): > 100 µM
- TGI (786-0 renal): > 100 µM
- TGI (HOP-92 NSCLC): 5.88 µM
- TGI (NCI-H23 lung): > 100 µM
- TGI (SK-MEL-2 melanoma): > 100 µM
- TGI (M14 melanoma): > 100 µM
- TGI (COLO 205 colon): > 100 µM

Compound: Cc1ccc(CNc2c3ccccc3nc3cc(NC(=O)CCN4CCCC4)ccc23)cc1
- GI50 (T-47D breast): 0.751 µM
- TGI (T-47D breast): 3.02 µM
- GI50 (786-0 renal): 0.732 µM
- TGI (786-0 renal): 2.04 µM
- GI50 (HOP-92 NSCLC): 0.516 µM
- TGI (HOP-92 NSCLC): 2.13 µM
- GI50 (NCI-H23 lung): 0.518 µM
- TGI (NCI-H23 lung): 1.81 µM
- GI50 (SK-MEL-2 melanoma): 1.69 µM
- TGI (SK-MEL-2 melanoma): 3.23 µM
- GI50 (M14 melanoma): 1.45 µM
- TGI (M14 melanoma): 2.84 µM
- GI50 (COLO 205 colon): 0.408 µM
- TGI (COLO 205 colon): 1.62 µM
- GI50 (NCI/ADR-RES ovarian): 4.02 µM
- TGI (NCI/ADR-RES ovarian): 24.2 µM

Compound: COc1ccc(OC)c(NC(=O)CCC/C(CC(=O)c2ccc(O)c(OC)c2)=N\Nc2ccc([N+](=O)[O-])cc2)c1
- TGI (K-562 leukemia): > 100 µM
- TGI (HL-60(TB) leukemia): > 100 µM
- TGI (786-0 renal): > 100 µM
- TGI (HOP-92 NSCLC): 85.6 µM
- TGI (NCI-H23 lung): > 100 µM
- TGI (SK-MEL-2 melanoma): > 100 µM
- TGI (M14 melanoma): > 100 µM
- TGI (COLO 205 colon): > 100 µM

Compound: O=S1(=O)OCCOS(=O)(=O)C1Cc1ccccc1
- TGI (K-562 leukemia): > 100 µM
- TGI (HL-60(TB) leukemia): 54.5 µM
- TGI (786-0 renal): > 100 µM
- TGI (HOP-92 NSCLC): > 100 µM
- TGI (NCI-H23 lung): > 100 µM
- TGI (COLO 205 colon): 34.8 µM

Compound: Cc1ccc(Nc2nc(C)c(C(/C=C/c3ccc(/C=C/C(=N/NC(=O)C[n+]4ccccc4)c4sc(Nc5ccc(C)cc5[N+](=O)[O-])nc4C)cc3)=N\NC(=O)C[n+]3ccccc3)s2)c([N+](=O)[O-])c1
- TGI (K-562 leukemia): > 100 µM
- TGI (HL-60(TB) leukemia): > 100 µM
- TGI (786-0 renal): > 100 µM
- TGI (NCI-H23 lung): > 100 µM
- TGI (SK-MEL-2 melanoma): > 100 µM
- TGI (M14 melanoma): > 100 µM
- TGI (COLO 205 colon): > 100 µM

Compound: CN(C(=O)c1ccco1)C(=S)N1CCN(c2ccccc2)CC1
- TGI (K-562 leukemia): > 100 µM
- TGI (HL-60(TB) leukemia): > 100 µM
- TGI (786-0 renal): > 100 µM
- TGI (HOP-92 NSCLC): > 100 µM
- TGI (NCI-H23 lung): > 100 µM
- TGI (SK-MEL-2 melanoma): > 100 µM
- TGI (M14 melanoma): > 100 µM
- TGI (COLO 205 colon): > 100 µM

Compound: O=C1CC(S(=O)(=O)O)C=C1Nc1cccc(Cl)c1 (configuration not stated)
- TGI (K-562 leukemia): > 100 µM
- TGI (HL-60(TB) leukemia): > 100 µM
- TGI (786-0 renal): > 100 µM
- TGI (HOP-92 NSCLC): > 100 µM
- TGI (NCI-H23 lung): > 100 µM
- TGI (SK-MEL-2 melanoma): > 100 µM
- TGI (M14 melanoma): > 100 µM
- TGI (COLO 205 colon): > 100 µM

Compound: N#CC(c1nc2ccccc2nc1Cl)S(=O)(=O)c1ccccc1 (configuration not stated)
- TGI (K-562 leukemia): > 100 µM
- TGI (HL-60(TB) leukemia): > 100 µM
- TGI (786-0 renal): > 100 µM
- TGI (HOP-92 NSCLC): 70.1 µM
- TGI (NCI-H23 lung): > 100 µM
- TGI (SK-MEL-2 melanoma): > 100 µM
- TGI (M14 melanoma): > 100 µM
- TGI (COLO 205 colon): > 100 µM

Compound: COC(=O)C1=C(c2cc(OC)c(OC)c(OC)c2)OC(c2ccc(OC)c(OC)c2)C1 (configuration not stated)
- TGI (K-562 leukemia): > 100 µM
- TGI (HL-60(TB) leukemia): > 100 µM
- TGI (786-0 renal): > 100 µM
- TGI (HOP-92 NSCLC): > 100 µM
- TGI (NCI-H23 lung): > 100 µM
- TGI (SK-MEL-2 melanoma): > 100 µM
- TGI (M14 melanoma): > 100 µM
- TGI (COLO 205 colon): 42.6 µM

Compound: C/C(CC(=O)Nc1ccc(Cl)cc1)=N\NC(N)=S
- TGI (K-562 leukemia): > 100 µM
- TGI (HL-60(TB) leukemia): > 100 µM
- TGI (786-0 renal): > 100 µM
- TGI (HOP-92 NSCLC): > 100 µM
- TGI (NCI-H23 lung): > 100 µM
- TGI (SK-MEL-2 melanoma): > 100 µM
- TGI (M14 melanoma): > 100 µM
- TGI (COLO 205 colon): > 100 µM

Compound: O=[N+]([O-])c1cccc([As]=[As]c2cccc([N+](=O)[O-])c2)c1 (configuration not stated)
- GI50 (K-562 leukemia): 0.0327 µM
- TGI (K-562 leukemia): 0.106 µM
- GI50 (T-47D breast): 0.0358 µM
- TGI (T-47D breast): 0.164 µM
- GI50 (786-0 renal): 0.0961 µM
- TGI (786-0 renal): 0.222 µM
- GI50 (HOP-92 NSCLC): 0.0433 µM
- TGI (HOP-92 NSCLC): 0.173 µM
- GI50 (NCI-H23 lung): 0.182 µM
- TGI (NCI-H23 lung): 0.384 µM
- GI50 (SK-MEL-2 melanoma): 0.13 µM
- TGI (SK-MEL-2 melanoma): 0.272 µM
- GI50 (M14 melanoma): 0.136 µM
- TGI (M14 melanoma): 0.287 µM
- GI50 (COLO 205 colon): 0.0663 µM
- TGI (COLO 205 colon): 0.18 µM
- GI50 (NCI/ADR-RES ovarian): 0.182 µM
- TGI (NCI/ADR-RES ovarian): 0.447 µM

Compound: COC(=O)c1cc2ccc(OC(C)=O)c(OC(C)=O)c2cn1
- GI50 (K-562 leukemia): 1.86 µM
- TGI (K-562 leukemia): 7.32 µM and 3.75 µM
- GI50 (HL-60(TB) leukemia): 1.63 µM
- TGI (HL-60(TB) leukemia): 8.21 µM and 3.8 µM
- TGI (786-0 renal): 33 µM
- TGI (HOP-92 NSCLC): 32.4 µM
- TGI (NCI-H23 lung): 36.8 µM
- TGI (SK-MEL-2 melanoma): 36.7 µM
- TGI (M14 melanoma): 34.3 µM
- TGI (COLO 205 colon): 36.3 µM
- GI50 (NCI/ADR-RES ovarian): 27.3 µM
- TGI (NCI/ADR-RES ovarian): 70 µM

Compound: COc1ccc(C2SC(C)C(=O)N2NC(=O)C(O)c2ccccc2)cc1OC (configuration not stated)
- GI50 (K-562 leukemia): > 100 µM
- TGI (K-562 leukemia): > 100 µM
- GI50 (T-47D breast): > 100 µM
- TGI (T-47D breast): > 100 µM
- GI50 (HL-60(TB) leukemia): > 100 µM
- TGI (HL-60(TB) leukemia): > 100 µM
- GI50 (786-0 renal): > 100 µM
- TGI (786-0 renal): > 100 µM
- GI50 (HOP-92 NSCLC): > 100 µM
- TGI (HOP-92 NSCLC): > 100 µM
- GI50 (SK-MEL-2 melanoma): > 100 µM
- TGI (SK-MEL-2 melanoma): > 100 µM
- GI50 (M14 melanoma): > 100 µM
- TGI (M14 melanoma): > 100 µM
- GI50 (COLO 205 colon): > 100 µM
- TGI (COLO 205 colon): > 100 µM
- GI50 (NCI/ADR-RES ovarian): > 100 µM
- TGI (NCI/ADR-RES ovarian): > 100 µM

Compound: COc1cc(C2C(Cl)C(=O)N2NC(=O)c2ccc(N)cc2)ccc1O (configuration not stated)
- TGI (K-562 leukemia): 76.2 µM
- TGI (HL-60(TB) leukemia): > 100 µM
- TGI (786-0 renal): 39.4 µM
- TGI (HOP-92 NSCLC): 52.8 µM
- TGI (NCI-H23 lung): 44.8 µM
- TGI (SK-MEL-2 melanoma): > 100 µM
- TGI (M14 melanoma): > 100 µM
- TGI (COLO 205 colon): 36.9 µM

Compound: O=C(Nc1cccc(NC(=O)Nc2cc(C(F)(F)F)ccc2Cl)c1)Nc1cc(C(F)(F)F)ccc1Cl
- GI50 (K-562 leukemia): 2.17 µM
- TGI (K-562 leukemia): 44.7 µM
- GI50 (T-47D breast): 0.407 µM
- TGI (T-47D breast): 11.4 µM
- GI50 (786-0 renal): 4.93 µM
- TGI (786-0 renal): > 100 µM
- GI50 (HOP-92 NSCLC): 1.99 µM
- TGI (HOP-92 NSCLC): 5.06 µM
- GI50 (NCI-H23 lung): 2.61 µM
- TGI (NCI-H23 lung): 15.9 µM
- GI50 (SK-MEL-2 melanoma): 2.53 µM
- TGI (SK-MEL-2 melanoma): 7.33 µM
- GI50 (M14 melanoma): 3.53 µM
- TGI (M14 melanoma): 60 µM
- GI50 (COLO 205 colon): 3.44 µM
- TGI (COLO 205 colon): > 100 µM
- GI50 (NCI/ADR-RES ovarian): 3.01 µM
- TGI (NCI/ADR-RES ovarian): 17.7 µM

Compound: Cc1cc(Cl)ccc1NC(=O)CC/C(CC(=O)C(C)C)=N\NC(=O)C[n+]1ccccc1
- TGI (K-562 leukemia): > 100 µM
- TGI (HL-60(TB) leukemia): > 100 µM
- TGI (786-0 renal): > 100 µM
- TGI (HOP-92 NSCLC): > 100 µM
- TGI (NCI-H23 lung): > 100 µM
- TGI (SK-MEL-2 melanoma): > 100 µM
- TGI (M14 melanoma): > 100 µM
- TGI (COLO 205 colon): > 100 µM

Compound: CCOC(=O)NC(=O)c1cn(CCN2CCN(c3ncnc4nc[nH]c34)CC2)c(=O)[nH]c1=O
- TGI (K-562 leukemia): > 100 µM
- TGI (HL-60(TB) leukemia): > 100 µM
- TGI (786-0 renal): > 100 µM
- TGI (HOP-92 NSCLC): > 100 µM
- TGI (NCI-H23 lung): > 100 µM
- TGI (SK-MEL-2 melanoma): > 100 µM
- TGI (M14 melanoma): > 100 µM
- TGI (COLO 205 colon): > 100 µM

Compound: [N-]=[N+]=NC(CI)c1cn([C@H]2C[C@H](O)[C@@H](CO)O2)c(=O)[nH]c1=O (some centres not stated)
- TGI (K-562 leukemia): > 100 µM
- TGI (HL-60(TB) leukemia): > 100 µM
- TGI (786-0 renal): > 100 µM
- TGI (HOP-92 NSCLC): > 100 µM
- TGI (NCI-H23 lung): > 100 µM
- TGI (SK-MEL-2 melanoma): > 100 µM
- TGI (M14 melanoma): > 100 µM
- TGI (COLO 205 colon): > 100 µM

Compound: COc1ccc(/C=C2\S/C(=N/Nc3nc(-c4ccccc4)cs3)NC2=O)cc1OC
- TGI (HL-60(TB) leukemia): 22 µM
- TGI (786-0 renal): 93.4 µM
- TGI (HOP-92 NSCLC): 35.2 µM
- TGI (NCI-H23 lung): 69.4 µM
- TGI (SK-MEL-2 melanoma): 47.5 µM
- TGI (M14 melanoma): > 100 µM
- TGI (COLO 205 colon): > 100 µM
- TGI (NCI/ADR-RES ovarian): 49.8 µM

Compound: Cc1ccccc1NC(=O)C(=O)CC(=O)c1c(C)n([O-])c2ccccc2[n+]1=O
- TGI (K-562 leukemia): > 100 µM
- TGI (786-0 renal): > 100 µM
- TGI (NCI-H23 lung): > 100 µM
- TGI (SK-MEL-2 melanoma): > 100 µM
- TGI (M14 melanoma): > 100 µM
- TGI (COLO 205 colon): > 100 µM
